pEC50: −log10 of the molar value.
How the values were obtained:
mAMY3R = biological target: T1, mAMY3R (Mus musculus, UniProt Q60755+Q9WUP1); assay: Mouse receptor cAMP HTRF assay (BacMam, HeLa), mAMY3R; settings: ratio of cAMP EC50 values, mouse receptors
T1 sequence (Q60755 42-496 isoform Q60755-2 limits assumed): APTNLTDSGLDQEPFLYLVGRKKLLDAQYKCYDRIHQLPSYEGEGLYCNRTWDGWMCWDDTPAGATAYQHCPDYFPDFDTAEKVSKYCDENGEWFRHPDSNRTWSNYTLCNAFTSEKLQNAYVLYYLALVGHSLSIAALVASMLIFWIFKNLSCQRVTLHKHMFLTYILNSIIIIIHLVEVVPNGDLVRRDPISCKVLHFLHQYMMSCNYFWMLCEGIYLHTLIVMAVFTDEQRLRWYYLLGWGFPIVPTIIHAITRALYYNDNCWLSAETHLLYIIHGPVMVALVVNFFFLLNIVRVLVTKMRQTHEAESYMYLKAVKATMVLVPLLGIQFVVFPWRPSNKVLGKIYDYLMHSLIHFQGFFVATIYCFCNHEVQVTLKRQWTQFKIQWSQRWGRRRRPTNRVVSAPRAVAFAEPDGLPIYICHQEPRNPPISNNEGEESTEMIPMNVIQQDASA
T1 sequence (Q9WUP1 24-147 partner limits assumed): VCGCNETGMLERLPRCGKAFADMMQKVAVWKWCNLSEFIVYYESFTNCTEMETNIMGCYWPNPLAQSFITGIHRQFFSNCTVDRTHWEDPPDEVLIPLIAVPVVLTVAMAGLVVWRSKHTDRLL

cAMY1R [1] = assay: Whole-cell competition binding, cAMY1R; settings: IC50 for the CTR divided by that of the AMYR, canine receptors
[2] = cited from earlier work
Description: The major chemical degradation products of pramlintide have been identified to include deamidation and isomerization of asparagine residues in positions 3, 21, and 22 and to a lesser degree in positions 14 and 35.[22] Reduction of these deamidation reactions in pramlintide has been obtained by acidic formulation.[23]

cCTR = assay: Species-specific cAMP assay, cCTR; settings: cAMP HTRF, transiently transfected BHK cells, 30 min room temperature, five experiments
cAMY1R [3] = assay: Species-specific cAMP assay, cAMY1R
mCTR = biological target: T2, mCTR (Mus musculus, UniProt Q60755); assay: Mouse receptor cAMP HTRF assay (BacMam, HeLa), mCTR
T2 sequence (Q60755 42-496 isoform Q60755-2 limits assumed): T1 sequence (Q60755 42-496 isoform Q60755-2 limits assumed)

cAMY3R [4] = assay: Species-specific cAMP assay, cAMY3R
cAMY3R [5] = assay: Whole-cell competition binding, cAMY3R; settings: IC50 for the CTR divided by that of the AMYR, canine receptors
[6] = cAMP HTRF, transiently transfected BHK cells, 30 min room temperature, five experiments
[7] = ratio of cAMP EC50 values, canine receptors

Ratio CTR/AMY3R (mouse, functional) (mAMY3R): 8
cCTR pEC50 (cCTR): 10.90
cAMY1R pEC50 (cAMY1R [3]; [6]): 10.77
pEC50 (mCTR): 8.51
cAMY3R pEC50 (cAMY3R [4]; [6]): 10.88
Structure (SMILES): CC[C@H](C)[C@H](NC(=O)[C@@H]1CCCN1C(=O)CNC(=O)[C@H](Cc1ccccc1)NC(=O)[C@H](CC(N)=O)NC(=O)[C@H](CC(N)=O)NC(=O)[C@H](CO)NC(=O)[C@H](CO)NC(=O)[C@H](Cc1c[nH]cn1)NC(=O)[C@@H](NC(=O)[C@H](CC(C)C)NC(=O)[C@H](Cc1ccccc1)NC(=O)[C@H](CC(N)=O)NC(=O)[C@H](C)NC(=O)[C@H](CC(C)C)NC(=O)[C@H](CCCNC(=N)N)NC(=O)[C@H](CCC(N)=O)NC(=O)[C@@H](NC(=O)[C@H](C)NC(=O)[C@@H]1CSSC[C@H](NC(=O)[C@@H](N)CCCCN)C(=O)N[C@@H](CC(N)=O)C(=O)N[C@@H]([C@@H](C)O)C(=O)N[C@@H](C)C(=O)N[C@@H]([C@@H](C)O)C(=O)N1)[C@@H](C)O)C(C)C)C(=O)N[C@@H](CC(C)C)C(=O)N1CCC[C@H]1C(=O)N1CCC[C@H]1C(=O)N[C@H](C(=O)N[C@@H](CC(N)=O)C(=O)N[C@H](C(=O)NCC(=O)N[C@@H](CO)C(=O)N[C@@H](CC(N)=O)C(=O)N[C@H](C(=O)N[C@@H](Cc1ccc(O)cc1)C(N)=O)[C@@H](C)O)C(C)C)[C@@H](C)O [pramlintide, reference compound]
Ratio CTR/AMY1R (canine, binding) (cAMY1R [1]): 67
half-life in plasma [2]: 30 to 50 min
Ratio CTR/AMY1R (canine, functional) (cAMY1R [3]; [7]): 1
Ratio CTR/AMY3R (canine, functional) (cAMY3R [4]; [7]): 1
Ratio CTR/AMY3R (canine, binding) (cAMY3R [5]): 112
